From patent publication US20240010681A1, “PEPTIDES AND METHODS OF USE” (REALTA LIFE SCIENCES, INC., priority 2020, published 2024)

Columns and labels:
human neutrophils [1] = experiment: Human neutrophil viability, Cell Counting Kit-8; assay type: cell-based; details: cells in PBS or RPMI; compared to buffer alone
Protocol: Cell viability in the presence of increasing amounts of PA-dPEG24 was determined using the Cell Counting Kit-8 (Dojindo). Cell Counting Kit-8 (CCK-8) is a sensitive colorimetric assay for the determination of cell viability in cell proliferation and cytotoxicity assays. The highly water-soluble tetrazolium salt, WST-8, is reduced by dehydrogenase activities in cells to give a yellow-color formazan dye, which is soluble in the tissue culture media. The amount of the formazan dye, generated by the activities of dehydrogenases in cells, is directly proportional to the number of living cells. Neutrophils were isolated from whole blood. Briefly, heparinized whole blood was collected from four different individuals (n=4). The blood was spun on a Hypaque/Ficoll gradient. The pellet was collected, and 3% dextran was added for 20 minutes. The supernatant was collected and washed several times. After a red blood cell lysis, the neutrophils were resuspended in either PBS or RPMI at a concentration of 1.0×10^6 cells/mL. ‘Fresh’ neutrophils were taken at this point and 100 uL (100,000 cells/well) were added to a 96-well plate. 10 uL of CCK-8 (Dojindo Molecular Technologies) was added to each well for 2 hours at 37 C. Absorbance at 450 nm was read to determine viability. […] Absorbance at 450 nm was read to determine viability.

C1q = C1q (Homo sapiens, UniProt P02745+P02746+P02747); experiment: ELISA-type plate binding assay, C1q (positive control ligand)
C1q, sequence (P02745 23-245): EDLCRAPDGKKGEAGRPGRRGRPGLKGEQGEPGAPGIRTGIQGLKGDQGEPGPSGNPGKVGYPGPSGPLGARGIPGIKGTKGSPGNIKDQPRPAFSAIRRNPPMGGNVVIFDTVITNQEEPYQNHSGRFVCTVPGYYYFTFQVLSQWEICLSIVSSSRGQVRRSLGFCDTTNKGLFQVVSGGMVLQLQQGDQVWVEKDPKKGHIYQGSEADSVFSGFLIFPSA
C1q, sequence (P02746 28-253): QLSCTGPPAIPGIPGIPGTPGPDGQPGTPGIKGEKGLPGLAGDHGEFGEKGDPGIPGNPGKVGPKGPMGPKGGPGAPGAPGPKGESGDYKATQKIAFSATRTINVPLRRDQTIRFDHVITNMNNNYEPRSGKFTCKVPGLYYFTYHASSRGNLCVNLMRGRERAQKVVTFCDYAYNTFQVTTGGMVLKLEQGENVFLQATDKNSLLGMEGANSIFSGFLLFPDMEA
C1q, sequence (P02747 29-245): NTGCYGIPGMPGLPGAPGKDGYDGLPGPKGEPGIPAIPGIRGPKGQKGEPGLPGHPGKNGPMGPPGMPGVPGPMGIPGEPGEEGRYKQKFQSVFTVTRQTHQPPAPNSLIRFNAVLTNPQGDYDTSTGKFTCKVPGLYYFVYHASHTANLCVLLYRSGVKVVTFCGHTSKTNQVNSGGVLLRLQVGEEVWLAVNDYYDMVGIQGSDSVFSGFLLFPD

human neutrophils [2] = experiment: Human neutrophil adhesion to glass slides with or without fibrinogen; assay type: cell-based; details: increasing concentrations, 2.5 hours
Protocol: To ascertain whether the binding of PA-dPEG24 has an effect on the ability of neutrophils to adhere to surfaces in vitro, purified human neutrophils were incubated with increasing concentrations of PA-dPEG24, washed twice with PBS, placed on the glass slides, and then incubated in a humidified 37° C. incubator in the presence of 5% C02 for 2.5 hours. Slides were subsequently stained with DAPI (1:1000 in 2% BSA) followed by imaging at 20× by fluorescence microscopy. Quantification of the amount of cell staining was performed using ImageJ analysis (NIH). […] To ascertain if adherence of neutrophils was altered on glass slides pre-coated with fibrinogen, purified human neutrophils were incubated with increasing concentrations of PA-dPEG24, washed twice with PBS, placed on the fibrinogen-coated glass slides, and then incubated in a humidified 37° C. incubator in the presence of 5% C02 for 2.5 hours. Slides were subsequently stained with DAPI (1:1000 in 2% BSA) followed by imaging at 20× by fluorescence microscopy. Quantification of the amount of cell staining was performed using ImageJ analysis (NIH).

[3] = IV 200 mg/ml (800 mg/kg)
MPO = experiment: OVA/LPS rat asthma model, MPO in BALF (colorimetric); details: vs Day 24 asthma animals

SMILES: CC[C@H](C)[C@H](N)C(=O)N[C@@H](C)C(=O)N[C@@H](CC(C)C)C(=O)N[C@H](C(=O)N[C@@H](CC(C)C)C(=O)N[C@@H](CCC(=O)O)C(=O)N1CCC[C@H]1C(=O)N[C@H](C(=O)N[C@@H](CS)C(=O)N[C@@H](CS)C(=O)N[C@@H](CCC(N)=O)C(=O)N[C@@H](CCC(=O)O)C(=O)N[C@@H](CCCNC(=N)N)C(=O)N[C@@H](C)C(=O)N[C@@H](C)C(=O)NCCOCCOCCOCCOCCOCCOCCOCCOCCOCCOCCOCCOCCOCCOCCOCCOCCOCCOCCOCCOCCOCCOCCOCCOCCC(=O)O)[C@@H](C)CC)[C@@H](C)CC [RLS-0071]
- neutrophil viability (CCK-8, absorbance 450 nm) (human neutrophils [1]): dose-dependent increase in viability
- binding to C1q (C1q; 1% gelatin/PBS buffer): bound PA-dPEG24 in a dose-dependent manner
- binding to C1q (C1q; in human plasma): bound PA-dPEG24 in a dose-dependent manner
- neutrophil adherence to fibrinogen-coated glass slides (human neutrophils [2]; fibrinogen-coated glass): dose-dependently decreased neutrophil adherence
- number of neutrophils adhered to glass slides (human neutrophils [2]; untreated glass): dose-dependently reduced the number of cells adhered to the slides
- RLS-0071 level in plasma after 24 hours [3]: undetectable
- MPO levels in the BALF (MPO; prophylactic 160 mg/kg IV, p=0.12): reduction in MPO levels that did not reach statistical significance
- MPO levels in the BALF (MPO; rescue 160 mg/kg IV, P=0.05): significant reduction in MPO levels
